The values below come from patent US5854216A, “Marker for growth hormone-releasing factor receptors” (Universite de Montreal, priority 1996, dated 1998).

Assay [1] has as its target T1, GRF receptors ([^125 I-Tyr^10 ]hGRF(1-44)NH2 binding sites in rat adenopituitary) (Rattus norvegicus, UniProt Q02644).
T1 construct: from tissue; host or cells: rat anterior pituitary homogenate
T1 sequence (Q02644 23-423 isoform Q02644-2 limits assumed): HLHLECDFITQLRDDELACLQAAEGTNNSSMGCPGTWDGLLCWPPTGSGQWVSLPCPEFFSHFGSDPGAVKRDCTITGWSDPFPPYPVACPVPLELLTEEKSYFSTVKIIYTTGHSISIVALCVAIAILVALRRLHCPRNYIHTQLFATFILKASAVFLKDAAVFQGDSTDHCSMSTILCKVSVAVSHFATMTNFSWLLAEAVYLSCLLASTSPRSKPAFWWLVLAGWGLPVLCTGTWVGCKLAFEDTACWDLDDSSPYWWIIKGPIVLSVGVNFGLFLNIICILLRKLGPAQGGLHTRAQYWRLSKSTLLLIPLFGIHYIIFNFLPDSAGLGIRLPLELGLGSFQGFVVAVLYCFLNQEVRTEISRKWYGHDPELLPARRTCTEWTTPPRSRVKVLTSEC
The experiment in a line: Competitive binding assay with [^125 I-Tyr^10 ]hGRF(1-44)NH2 on anterior pituitary homogenates. As for the experimental part: The binding of [^125 I-Tyr^10 ]hGRF(1-44)NH2 was performed on anterior pituitary homogenates as previously described (Gaudreau P. et al., J. Biol. Chem., 1992, 35:1864-1869). Briefly, anterior pituitaries (pit.) were dissected out, rinsed and homogenized for 8 sec with a Micro Ultrasonic Cell Disrupter™, in ice-cold 50 mM Tris-HCl buffer, pH 7.4, containing 5 mM MgCl2 and 5 mM EDTA (1 pit./0.5 ml). These homogenates were used immediately. Competition studies were performed using 35-50 pM [^125 I-Tyr^10 ]hGRF(1-44)NH2 as radio-ligand,50 μl of homogenate (70 to 75 μg of protein), and increasing concentrations of Nε-CF-[Lys^31 ]hGRF or other GRF analogues (0-1000 nM) or with 2.4 μM rGRF(1-29)NH2 for determination of non-specific binding, in a total volume of 300 μl of Tris-HCl buffer, pH 7.4, containing 5 mM EDTA, 5 mM MgCl2 and 0.42% BSA. Incubations were carried out at 23° C. for 60 min and stopped by centrifugation (12,000 g, 5 min, at 4° C.). The radioactivity content in the pellet was measured by gamma counting. The affinity of hGRF(1-29)NH2 was tested in each experiment to assess the validity of the assay and determine the relative affinity of the analogues. […] The Hill values indicate that all these peptides bind to the high and low affinity GRF binding sites found in the anterior pituitary.

Assay [2] has as its target T2, GRF receptor (adenylate cyclase activity in rat adenopituitary) (Rattus norvegicus, UniProt Q02644).
T2 construct: from tissue; host or cells: rat anterior pituitary homogenate
T2 sequence (Q02644 23-423 isoform Q02644-2 limits assumed): T1 sequence (Q02644 23-423 isoform Q02644-2 limits assumed)
The assay can be described thus: Adenylate cyclase assay on anterior pituitary homogenates (cAMP by HPLC). In kind it is biochemical. The note with it: Table 12; 50% of maximal cAMP accumulation induced by 1 μM hGRF(1-29)NH2; mean±SD of 2 or mean±SE of 3 to 6 experiments, 10 for hGRF(1-29)NH2. On the procedure:
The adenylate cyclase activity Nε-CF-[Lys^31 ]hGRF was performed on anterior pituitary homogenates as previously described (Lefrangois L. and Gaudreau P., J. Chromatogr., 1993, 619:116-120). Briefly, anterior pituitaries (pit.) were dissected out, rinsed and homogenized for 8 sec with a Micro Ultrasonic Cell Disrupter™, in ice-cold 20 mM Tris-HCl buffer (pH 7.5) containing 2 mM MgCl2 and 250 mM sucrose (1 pit./0.5 ml).
Samples of anterior pituitary homogenates (30-40 μg protein) were incubated in 1.5 ml Eppendorf™ tubes with 30 mM Tris-HCl, 5 mM MgCl2, 0.5 mM EGTA, containing 0.5 mM ATP, 1 mM IBMX, 10 μM GTP and an ATP regenerating system consisting of 2 mM creatine phosphate, 0.1 mg/ml creatine kinase and, 0.1 mg/ml myokinase in a final volume of 120 μl. Incubations were initiated by adding 20 μl of the homogenate to the reaction mixture which had previously been equilibrated at 37° C. for 2 min. The reactions were carried out for 8 min at 37° C. and stopped by heating the samples in boiling water for 4 min. Samples were centrifuged (12000 g, 5 min, 4° C.) and supernatants were filtered through 0.45 μm Millex HV4 ™ filters and transferred to autosampler vials for HPLC quantification of cAMP.

[3] abbreviates: Table 11, mean±SD of 2 or mean±SE of 3 experiments for analogues, mean±SE of 11 for hGRF(1-29)NH2.

Square brackets hold non-standard residues; d marks the D form. Peptide text beside a SMILES is read from it. Phe(4-NO2) = N[C@@H](Cc1ccc([N+](=O)[O-])cc1)C(=O)O

On to `CC[C@H](C)[C@H](NC(=O)[C@H](C)NC(=O)[C@H](CC(=O)O)NC(=O)[C@@H](C)NC(=O)[C@@H](N)Cc1ccc(O)cc1)C(=O)N[C@@H](Cc1ccccc1)C(=O)N[C@H](C(=O)N[C@@H](CC(N)=O)C(=O)N[C@@H](CO)C(=O)N[C@H](Cc1ccc(O)cc1)C(=O)N[C@@H](CCCNC(=N)N)C(=O)N[C@@H](CCCCN)C(=O)N[C@H](C(=O)N[C@@H](CC(C)C)C(=O)N[C@H](C)C(=O)N[C@@H](CCC(N)=O)C(=O)N[C@@H](CC(C)C)C(=O)N[C@@H](CO)C(=O)N[C@@H](C)C(=O)N[C@@H](CCCNC(=N)N)C(=O)N[C@H](CCCCN)C(=O)N[C@@H](CC(C)C)C(=O)N[C@@H](CC(C)C)C(=O)N[C@@H](CCC(N)=O)C(=O)N[C@@H](CC(=O)O)C(=O)N[C@H](C(=O)N[C@@H](CCSC)C(=O)N[C@@H](CO)C(=O)N[C@@H](CCCNC(=N)N)C(N)=O)[C@@H](C)CC)C(C)C)[C@@H](C)O` [D-Ala^2, D-Tyr^10, D-Ala^15, D-Lys^21] (H-Y[dA]DAIFTNS[dY]RKVL[dA]QLSAR[dK]LLQDIMSR-NH2), for which the IC50 in assay [1] (setting [3]) was determined as 0.0316 ± 0.0117 µM; in assay [2], 0.136 ± 0.05 µM.

As to `CC[C@H](C)[C@H](NC(=O)[C@H](C)NC(=O)[C@H](CC(=O)O)NC(=O)[C@@H](C)NC(=O)[C@@H](N)Cc1ccc(O)cc1)C(=O)N[C@@H](Cc1ccccc1)C(=O)N[C@H](C(=O)N[C@@H](CC(N)=O)C(=O)N[C@@H](CO)C(=O)N[C@H](Cc1ccc(O)cc1)C(=O)N[C@@H](CCCNC(=N)N)C(=O)N[C@@H](CCCCN)C(=O)N[C@H](C(=O)N[C@@H](CC(C)C)C(=O)N[C@H](C)C(=O)N[C@@H](CCC(N)=O)C(=O)N[C@@H](CC(C)C)C(=O)N[C@@H](CO)C(=O)N[C@@H](C)C(=O)N[C@@H](CCCNC(=N)N)C(=O)N[C@@H](CCCCN)C(=O)N[C@@H](CC(C)C)C(=O)N[C@@H](CC(C)C)C(=O)N[C@@H](CCC(N)=O)C(=O)N[C@@H](CC(=O)O)C(=O)N[C@H](C(=O)N[C@@H](CCSC)C(=O)N[C@@H](CO)C(=O)N[C@@H](CCCNC(=N)N)C(N)=O)[C@@H](C)CC)C(C)C)[C@@H](C)O` [D-Ala^2, D-Tyr^10, D-Ala^15] (H-Y[dA]DAIFTNS[dY]RKVL[dA]QLSARKLLQDIMSR-NH2), the IC50 in assay [1] (setting [3]) stood at 0.0131 ± 0.0009 µM; in assay [2], 0.176 ± 0.087 µM.

Regarding `CC[C@H](C)[C@H](NC(=O)[C@H](C)NC(=O)[C@H](CC(=O)O)NC(=O)[C@H](C)NC(=O)[C@@H](N)Cc1ccc(O)cc1)C(=O)N[C@@H](Cc1ccccc1)C(=O)N[C@H](C(=O)N[C@H](CC(N)=O)C(=O)N[C@@H](CO)C(=O)N[C@@H](Cc1ccc(O)cc1)C(=O)N[C@@H](CCCNC(=N)N)C(=O)N[C@@H](CCCCN)C(=O)N[C@H](C(=O)N[C@@H](CC(C)C)C(=O)NCC(=O)N[C@@H](CCC(N)=O)C(=O)N[C@@H](CC(C)C)C(=O)N[C@@H](CO)C(=O)N[C@@H](C)C(=O)N[C@@H](CCCNC(=N)N)C(=O)N[C@@H](CCCCN)C(=O)N[C@H](CC(C)C)C(=O)N[C@@H](CC(C)C)C(=O)N[C@@H](CCC(N)=O)C(=O)N[C@@H](CC(=O)O)C(=O)N[C@H](C(=O)N[C@@H](CCSC)C(=O)N[C@@H](CO)C(=O)N[C@@H](CCCNC(=N)N)C(N)=O)[C@@H](C)CC)C(C)C)[C@@H](C)O` [D-Ans^8, D-Leu^22], the IC50 in assay [1] (setting [3]) came to 0.0049 ± 0.00325 µM; in assay [2], 0.067 ± 0.024 µM.

Turning to `CC[C@H](C)[C@H](NC(=O)[C@H](C)NC(=O)[C@H](CC(=O)O)NC(=O)[C@H](C)NC(=O)[C@H](Cc1ccc(O)cc1)NC(=O)[C@@H](N)Cc1ccc([N+](=O)[O-])cc1)C(=O)N[C@@H](Cc1ccccc1)C(=O)N[C@H](C(=O)N[C@@H](CC(N)=O)C(=O)N[C@@H](CO)C(=O)N[C@@H](Cc1ccc(O)cc1)C(=O)N[C@@H](CCCNC(=N)N)C(=O)N[C@@H](CCCCN)C(=O)N[C@H](C(=O)N[C@@H](CC(C)C)C(=O)NCC(=O)N[C@@H](CCC(N)=O)C(=O)N[C@@H](CC(C)C)C(=O)N[C@@H](CO)C(=O)N[C@@H](C)C(=O)N[C@@H](CCCNC(=N)N)C(=O)N[C@@H](CCCCN)C(=O)N[C@@H](CC(C)C)C(=O)N[C@@H](CC(C)C)C(=O)N[C@@H](CCC(N)=O)C(=O)N[C@@H](CC(=O)O)C(=O)N[C@H](C(=O)N[C@@H](CCSC)C(=O)N[C@@H](CO)C(=O)N[C@@H](CCCNC(=N)N)C(N)=O)[C@@H](C)CC)C(C)C)[C@@H](C)O` [npa0], the Hill coef. in assay [1] (Table 7) is given as 0.63 ± 0.09. For the same compound, in assay [1] (Table 7, mean±SD of 2 or mean±SE of 3-6 experiments for analogues, mean±SE of 29 for hGRF(1-29)NH2), the IC50 worked out at 0.0183 ± 0.0059 µM. For the same compound, the Relative affinity in assay [1] (Table 7, ratio IC50 of hGRF(1-29)NH2 /IC50 analogue) is on record as 14 ± 5%.

Consider `CC[C@H](C)[C@H](NC(=O)[C@H](C)NC(=O)[C@H](CC(=O)O)NC(=O)[C@H](C)NC(=O)[C@@H](N)Cc1ccc(O)cc1)C(=O)N[C@@H](Cc1ccccc1)C(=O)N[C@H](C(=O)N[C@@H](CC(N)=O)C(=O)N[C@@H](Cc1ccc([N+](=O)[O-])cc1)C(=O)N[C@@H](Cc1ccc(O)cc1)C(=O)N[C@@H](CCCNC(=N)N)C(=O)N[C@@H](CCCCN)C(=O)N[C@H](C(=O)N[C@@H](CC(C)C)C(=O)NCC(=O)N[C@@H](CCC(N)=O)C(=O)N[C@@H](CC(C)C)C(=O)N[C@@H](CO)C(=O)N[C@@H](C)C(=O)N[C@@H](CCCNC(=N)N)C(=O)N[C@@H](CCCCN)C(=O)N[C@@H](CC(C)C)C(=O)N[C@@H](CC(C)C)C(=O)N[C@@H](CCC(N)=O)C(=O)N[C@@H](CC(=O)O)C(=O)N[C@H](C(=O)N[C@@H](CCSC)C(=O)N[C@@H](CO)C(=O)N[C@@H](CCCNC(=N)N)C(N)=O)[C@@H](C)CC)C(C)C)[C@@H](C)O` [npa^9, [4'-nitro-phenylanalylalanine^9]hGRF(1-29)NH2] (H-YADAIFTN[Phe(4-NO2)]YRKVLGQLSARKLLQDIMSR-NH2), for which the “IC50 (in words)” value in assay [1] is given as “low nanomolar range”.

Regarding `CC[C@H](C)[C@H](NC(=O)[C@H](C)NC(=O)[C@H](CC(=O)O)NC(=O)[C@H](C)NC(=O)[C@@H](N)Cc1ccc(O)cc1)C(=O)N[C@@H](Cc1ccccc1)C(=O)N[C@H](C(=O)N[C@@H](CC(N)=O)C(=O)N[C@@H](CO)C(=O)N[C@@H](Cc1ccc([N+](=O)[O-])cc1)C(=O)N[C@@H](CCCNC(=N)N)C(=O)N[C@@H](CCCCN)C(=O)N[C@H](C(=O)N[C@@H](CC(C)C)C(=O)NCC(=O)N[C@@H](CCC(N)=O)C(=O)N[C@@H](CC(C)C)C(=O)N[C@@H](CO)C(=O)N[C@@H](C)C(=O)N[C@@H](CCCNC(=N)N)C(=O)N[C@@H](CCCCN)C(=O)N[C@@H](CC(C)C)C(=O)N[C@@H](CC(C)C)C(=O)N[C@@H](CCC(N)=O)C(=O)N[C@@H](CC(=O)O)C(=O)N[C@H](C(=O)N[C@@H](CCSC)C(=O)N[C@@H](CO)C(=O)N[C@@H](CCCNC(=N)N)C(N)=O)[C@@H](C)CC)C(C)C)[C@@H](C)O` [npa^10, [4'-nitro-phenylalanine^10]hGRF(1-29)NH2] (H-YADAIFTNS[Phe(4-NO2)]RKVLGQLSARKLLQDIMSR-NH2), the “IC50 (in words)” value in assay [1] was “low nanomolar range”.

What is called IC50 is the midpoint of a concentration-inhibition curve. The low end stands for greater potency in that assay, the high end for weaker potency in that assay.
